Like-named read-outs stand apart in the source and are kept apart here.
Assays:
[1] = target: GAL4 DBD (1-147)-CfEcR(DEF)/VP16AD-βRXREF-LmUSPEF (Choristoneura fumiferana, UniProt O77240); assay: cell-based; details: for 27-63 assay Rel Max FI: maximum fold induction at any concentration relative to that of GS-E ligand, CHO 27-63 cells; for fold induction at 3.3 µM: read-out: Fold Induction, 27-63 Assay, 3.3 uM; for fold induction at 33 µM: read-out: Fold Induction, 27-63 Assay, 33 uM; for Fold Induction, 27-63 Assay, 3.3 uM: 3.3 uM ligand; for Fold Induction, 27-63 Assay, 3.3 uM / Fold Induction, 27-63 Assay, 33 uM: RLU ligand treated / RLU DMSO treated cells; for Fold Induction, 27-63 Assay, 33 uM: 33 uM ligand
[2] = target: GAL4 DBD-CfEcR(DEF)/VP16AD-MmRXRE (Choristoneura fumiferana, UniProt O77240); assay: 13B3 Assay (CHO stable cell line, luciferase reporter); details: for 13B3 assay Rel Max FI: maximum fold induction at any concentration relative to that of GS-E ligand, CHO 13B3 cells; for fold induction at 3.3 µM: read-out: Fold Induction, 13B3 Assay, 3.3 uM; for fold induction at 33 µM: read-out: Fold Induction, 13B3 Assay, 33 uM; for Fold Induction, 13B3 Assay, 3.3 uM: 3.3 uM ligand; for Fold Induction, 13B3 Assay, 3.3 uM / Fold Induction, 13B3 Assay, 33 uM: RLU ligand treated / RLU DMSO treated cells; for Fold Induction, 13B3 Assay, 33 uM: 33 uM ligand
Outline: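 Ligands dosed at 8 levels from 33 to 0.01 μM (DMSO stocks diluted 300-fold) onto the 13B3 CHO line carrying GAL4-DBD/CfEcR-DEF, VP16/MmRXR-DE and a GAL4-responsive luciferase gene.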

[3] = read-out: 27-63 assay EC50, CHO 27-63 stable cell line, luciferase reporter, average of two wells
[4] = read-out: 13B3 EC50, CHO 13B3 stable cell line, luciferase reporter, 48 h, average of two wells

| Compound | 27-63 assay Rel Max FI [1] | 13B3 assay Rel Max FI [2] | Fold Induction, 27-63 Assay, 3.3 uM ([1]; average of two wells) | Fold Induction, 27-63 Assay, 33 uM ([1]; average of two wells) | EC50 [1, 3] [nM] | Fold Induction, 13B3 Assay, 33 uM ([2]; average of two wells) | other results |
| --- | --- | --- | --- | --- | --- | --- | --- |
| COc1cc(C(=O)N(NC(=O)c2ccc3c(c2C)OCCO3)C(C)(C)C#N)cc(OC)c1C [RG-115092, N-(5-methyl-1,4-benzodioxan-6-carbonyl)-N′-(2-cyano-2-propyl)-N′-(3,5-dimethoxy-4-methylbenzoyl)hydrazine] | 1.092 | 1.176 | – | – | – | – | EC50 [1]: 213 nM; fold induction at 3.3 µM [1]: 2870; fold induction at 33 µM [1]: 3110; EC50 [2]: 184 nM; fold induction at 3.3 µM [2]: 2320; fold induction at 33 µM [2]: 2410 |
| COc1cc(C(=O)N(NC(=O)c2ccc3c(c2C)CCCO3)C(C)(C)C)cc(OC)c1C [RG-115055] | 1.341 | 0.894 | 4499 | 2725 | 318 | 1350 | Fold Induction, 13B3 Assay, 3.3 uM ([2]; average of two wells): 1356; EC50 [2, 4]: 303 nM |
| CCc1c(OC)cccc1C(=O)NN(C(=O)c1cc(F)c(Cl)cc1Cl)C(C)(C)C [RG-115302] | 0.521 | 0.624 | 940 | 815 | 1040 | 648 | Fold Induction, 13B3 Assay, 3.3 uM ([2]; average of two wells): 521; EC50 [2, 4]: 2000 nM |
| CCc1c(OC)cccc1C(=O)NN(C(=O)c1ccc(Cl)cc1[N+](=O)[O-])C(C)(C)C [RG-115647] | 0.505 | 0.662 | 817 | 815 | 372 | 98 | Fold Induction, 13B3 Assay, 3.3 uM ([2]; average of two wells): 2169; EC50 [2, 4]: 832 nM |
| CCCC(N(NC(=O)c1cccc(OC)c1C)C(=O)c1cc(C)cc(C)c1)C(C)(C)C (stereo not drawn) [RG-115823] | 1.069 | – | 2093 | 1025 | 11 | – | – |
| COc1cnccc1C(=O)N(NC(=O)c1cccc(O)c1C)C(C)(C)C [RG-115595] | – | – | – | – | – | 1381 | Fold Induction, 13B3 Assay, 3.3 uM ([2]; average of two wells): 6 |
| CCCC(N(NC(=O)c1cccc(OC)c1C)C(=O)c1cc(OC)c(C)c(OC)c1)C(C)(C)C (stereo not drawn) [RG-115824] | 1.218 | – | 2675 | 948 | 36 | – | – |
| CC(=O)c1ccc(C(=O)NN(C(=O)c2cc(C(=O)O)cc(C(=O)O)c2)C(C)(C)C)cc1 [RG-100150] | – | – | – | – | – | 1 | – |
| CCc1c(OC)cccc1C(=O)NN(C(=O)c1cc(C)cc(C=NNC(=O)C(N)=O)c1)C(C)(C)C [RG-115613, oxamic hydrazone of N-(3-formyl-5-methyl-benzoyl)-N-tert-butyl-N′-(2-ethyl-3-methoxy-benzoyl) hydrazide] | – | 0.734 | – | – | – | 1726 | Fold Induction, 13B3 Assay, 3.3 uM ([2]; average of two wells): 180; EC50 [2, 4]: 5940 nM |
| CCc1c(OC)cccc1C(=O)NN(C(=O)c1cc(C)cc(C)c1)C(CC)C(C)(C)C (stereo not drawn) [RG-115832] | 1.075 | – | 2063 | 1435 | 35 | – | – |
| COc1cc(C(=O)N(NC(=O)c2ccc3c(c2C)OCCO3)C(C)(C)C)cc(OC)c1O [RG-115009, 4-Hydroxy-3,5-dimethoxy-benzoic acid N-tert-butyl-N′-(5-methyl-2,3-dihydro-benzo[1,4]dioxine-6-carbonyl)-hydrazide] | – | 0.917 | – | – | – | – | EC50 [2]: 18900 nM; fold induction at 3.3 µM [2]: 19; fold induction at 33 µM [2]: 2550 |
| CCC(N(NC(=O)c1cccc(OC)c1C)C(=O)c1cc(C)cc(C)c1)C(C)(C)C (stereo not drawn) [RG-115819, 3,5-dimethyl-benzoic acid N-(1-ethyl-2,2-dimethyl-propyl)-N′-(3-methoxy-2-methyl-benzoyl)-hydrazide] | 1.045 | – | – | – | – | – | EC50 [1]: 25 nM; fold induction at 3.3 µM [1]: 1970; fold induction at 33 µM [1]: 2370 |
| COc1ccc(C(=O)N(NC(=O)c2ccc3c(c2C)OCCO3)C(C)(C)C)c(OC)n1 [RG-115517, 2,6-dimethoxy-nicotinic acid N-tert-butyl-N′-(5-methyl-2,3-dihydro-benzo[1,4]dioxine-6-carbonyl)-hydrazide] | – | 0.675 | – | – | – | – | EC50 [2]: 355 nM; fold induction at 3.3 µM [2]: 8400; fold induction at 33 µM [2]: 12000 |
| CCCC(N(NC(=O)c1cccc(OC)c1CC)C(=O)c1cc(OC)c(C)c(OC)c1)C(C)(C)C (stereo not drawn) [RG-115829, 3,5-Dimethoxy-4-methyl-benzoic acid N-(1-tert-butyl-butyl)-N′-(2-ethyl-3-methoxy-benzoyl)-hydrazide] | 1.264 | – | – | – | – | – | EC50 [1]: 35 nM; fold induction at 3.3 µM [1]: 2600; fold induction at 33 µM [1]: 45 |
| CCC(N(NC(=O)c1cccc(OC)c1C)C(=O)c1cc(OC)c(C)c(OC)c1)C(C)(C)C (stereo not drawn) [RG-115820, 3,5-dimethoxy-4-methyl-benzoic acid N-(1-ethyl-2,2-dimethyl-propyl)-N′-(3-methoxy-2-methyl-benzoyl)-hydrazide] | 1.270 | – | – | – | – | – | EC50 [1]: 193 nM; fold induction at 3.3 µM [1]: 2860; fold induction at 33 µM [1]: 1970 |
| CCc1c(OC)cccc1C(=O)NN(C(=O)c1cc(OC)c(C)c(OC)c1)C(CC)C(C)(C)C (stereo not drawn) [RG-115831] | 1.366 | – | 2063 | 1435 | 96 | – | – |
| CCc1c(C(=O)NN(C(=O)c2ccc(F)c(C(F)(F)F)c2)C(C)(C)C)ccc2c1OCCO2 [RG-115280] | 0.254 | – | 9 | 422 | 11000 | – | – |
| Cc1c(C(=O)NN(C(=O)c2cc(F)c(F)c(F)c2)C(C)(C)C)ccc2c1CCCO2 [RG-115575, 3,4,5-Trifluoro-benzoic acid N-tert-butyl-N′-(5-methyl-chroman-6-carbonyl)-hydrazide] | – | 0.641 | – | – | – | – | EC50 [2]: 271 nM; fold induction at 3.3 µM [2]: 3080; fold induction at 33 µM [2]: 865 |
| CCCC(N(NC(=O)c1cccc(OC)c1CC)C(=O)c1cc(C)cc(C)c1)C(C)(C)C (stereo not drawn) [RG-115830] | 1.049 | – | 2287 | 353 | 36 | – | – |

Reference: patent publication US9102648B1, “Bioavailable diacylhydrazine ligands for modulating the expression of exogenous genes via an ecdysone receptor complex” (Intrexon Corporation, priority 2003, dated 2015)
